Consider 26 compounds from US20130096105A1, “ArylSulfonamide Based Matrix Metalloprotease Inhibitors” (NOVARTIS AG, priority 2008, published 2013).

Molecules are shown by their SMILES. pIC50: −log10 of the molar value.

In one experiment the target is Collagenase-3 (MMP-13) (Homo sapiens, UniProt P45452). Kind of experiment: Collagenase-3 (MMP-13) inhibitory activity, fluorogenic peptide substrate cleavage. The settings on record: read-out: MMP13 IC50. The experiment is classed as biochemical. An outline of the steps:
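Recombinant pro-MMP-13 activated with 1 mM APMA; inhibitor preincubated 60 min, then 5 μM MCA-Lys-Pro-Leu-Gly-Leu-Dpa-Ala-Arg-NH2 added in Tris-Cl pH 7.5 buffer with Zn2+, Ca2+, Brij-35, 1.0% DMSO, 20-25 °C. Fluorescence (ex 325/em 405 nm) read after 60 min; IC50 versus uninhibited control.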

In a further experiment the target is T1, Gelatinase (MMP-2) (Homo sapiens, UniProt P08253).
T1 sequence (P08253 110-660): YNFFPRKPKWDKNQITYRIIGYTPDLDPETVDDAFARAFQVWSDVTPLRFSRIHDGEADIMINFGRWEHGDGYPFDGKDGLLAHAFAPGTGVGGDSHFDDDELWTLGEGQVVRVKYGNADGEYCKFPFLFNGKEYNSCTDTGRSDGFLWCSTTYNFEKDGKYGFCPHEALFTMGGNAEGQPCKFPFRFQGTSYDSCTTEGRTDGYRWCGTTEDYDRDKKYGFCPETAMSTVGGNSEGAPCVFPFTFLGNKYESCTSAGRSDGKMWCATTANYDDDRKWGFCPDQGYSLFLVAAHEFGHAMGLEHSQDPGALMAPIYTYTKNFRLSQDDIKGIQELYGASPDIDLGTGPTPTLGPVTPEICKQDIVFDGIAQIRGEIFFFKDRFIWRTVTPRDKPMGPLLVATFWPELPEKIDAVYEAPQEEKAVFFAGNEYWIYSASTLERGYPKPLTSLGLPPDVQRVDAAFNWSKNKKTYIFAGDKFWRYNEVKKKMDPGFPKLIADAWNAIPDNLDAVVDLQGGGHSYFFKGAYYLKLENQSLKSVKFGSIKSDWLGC
Nature of the experiment: Gelatinase (MMP-2) inhibitory activity, fluorogenic peptide substrate cleavage. In kind it is biochemical. The settings on record: read-out: MMP02 IC50. The method in brief:
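Fluorogenic assay with MCA-Lys-Pro-Leu-Gly-Leu-Dpa-Ala-Arg-NH2 at 5 μM in Tris-Cl pH 7.5 buffer with ZnCl2, CaCl2, Brij-35 and 1.0% DMSO, 20-25 °C. Enzyme preincubated with inhibitor 60 min; fluorescence (ex 325/em 405 nm) read 60 min after substrate addition. IC50 relative to uninhibited control.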

With `CN1CCN(c2ccc(C(=O)c3ccc(Cl)c(S(N)(=O)=O)c3)cc2)CC1` [Example 87, 2-Chloro-5-[4-(4-methyl-piperazin-1-yl)-benzoyl]-benzenesulfonamide], the results for the pIC50 on Collagenase-3 (MMP-13) and at Gelatinase (MMP-2) were 5.92 and 5.76, respectively.

For `NS(=O)(=O)c1cc(C(=O)c2ccc(N3CCOCC3)cc2)ccc1Cl` [Example 88, 2-Chloro-5-(4-morpholin-4-yl-benzoyl)-benzenesulfonamide], the negative logarithm of the IC50 (pIC50) at Collagenase-3 (MMP-13) is 5.74; at Gelatinase (MMP-2) it was 6.02.

For the compound `NS(=O)(=O)c1cc(C(=O)c2ccc(N3CCC3=O)cc2)ccc1Cl` [Example 89, 2-Chloro-5-[4-(2-oxo-azetidin-1-yl)-benzoyl]-benzenesulfonamide], the pIC50 at Collagenase-3 (MMP-13) was 5.48; on Gelatinase (MMP-2) it was 5.69.

Take `NS(=O)(=O)c1cc(C(=O)c2ccc(N3CCCCCC3)cc2)ccc1Cl` [Example 90, 5-(4-Azepan-1-yl-benzoyl)-2-chloro-benzenesulfonamide]: the values for the pIC50 at Collagenase-3 (MMP-13) and at Gelatinase (MMP-2) were 4.97 and 4.86, respectively.

With `COc1ccc(C(=O)c2ccc(Cl)c(S(=O)(=O)NCCc3ccc([N+](=O)[O-])cc3)c2)cc1` [Example 91, 2-Chloro-5-(4-methoxy-benzoyl)-N-[2-(4-nitro-phenyl)-ethyl]-benzenesulfonamide], the results for the pIC50 at Collagenase-3 (MMP-13) and at Gelatinase (MMP-2) were 4.65 and less than 4.52, respectively.

As to `NS(=O)(=O)c1cc(C(=O)c2ccc(Nc3ccccc3)cc2)ccc1Cl` [Example 92, 2-Chloro-5-(4-phenylamino-benzoyl)-benzenesulfonamide], the pIC50 on Collagenase-3 (MMP-13) was 4.68; at Gelatinase (MMP-2), 4.64.

Turning to `NS(=O)(=O)c1cc(C(=O)c2ccc3ccccc3c2)ccc1Cl` [Example 93, 2-Chloro-5-(naphthalene-2-carbonyl)benzenesulfonamide], the pIC50 on Collagenase-3 (MMP-13) is 4.86; at Gelatinase (MMP-2), 4.58.

For `NS(=O)(=O)c1cc(C(=O)c2ccc3c(c2)CCC3)ccc1Cl` [Example 94, 2-Chloro-5-(indane-5-carbonyl)-benzenesulfonamide], the pIC50 on Collagenase-3 (MMP-13) was 4.65; at Gelatinase (MMP-2) it was 4.63.

As to `NS(=O)(=O)c1cc(C(=O)c2cc[nH]c2)ccc1Cl` [Example 95, 2-Chloro-5-(1H-pyrrole-3-carbonyl)-benzenesulfonamide], the pIC50 was 5.21 at Collagenase-3 (MMP-13) and 5.40 at Gelatinase (MMP-2).

As to `NS(=O)(=O)c1cc(C(=O)c2cccs2)ccc1Cl` [Example 96, 2-Chloro-5-(thiophene-2-carbonyl)-benzenesulfonamide], the pIC50 on Collagenase-3 (MMP-13) was 4.83; at Gelatinase (MMP-2), 5.00.

As for `NS(=O)(=O)c1cc(C(=O)c2ccc3nc[nH]c3c2)ccc1Cl` [Example 97, 5-(3H-Benzoimidazole-5-carbonyl)-2-chloro-benzenesulfonamide], the pIC50 on Collagenase-3 (MMP-13) was 6.20; on Gelatinase (MMP-2) it was 5.92.

On to `Cc1nc2ccc(C(=O)c3ccc(Cl)c(S(N)(=O)=O)c3)cc2[nH]1` [Example 98, 2-Chloro-5-(2-methyl-3H-benzoimidazole-5-carbonyl)-benzenesulfonamide], for which the pIC50 on Collagenase-3 (MMP-13) is 5.08; on Gelatinase (MMP-2), 5.65.

As to `CCc1n[nH]c2cc(C(=O)c3ccc(Cl)c(S(N)(=O)=O)c3)ccc12` [Example 99, 2-Chloro-5-(3-ethyl-1H-indazole-6-carbonyl)-benzenesulfonamide], the results for the pIC50 at Collagenase-3 (MMP-13) and at Gelatinase (MMP-2) were 6.60 and 6.57, respectively.

Consider `Cc1n[nH]c2cc(C(=O)c3ccc(Cl)c(S(N)(=O)=O)c3)ccc12` [Example 100, 2-Chloro-5-(3-methyl-1H-indazole-6-carbonyl)benzenesulfonamide], for which the pIC50 was 6.60 at Collagenase-3 (MMP-13) and 6.59 at Gelatinase (MMP-2).

Turning to `CC(C)c1n[nH]c2cc(C(=O)c3ccc(Cl)c(S(N)(=O)=O)c3)ccc12` [Example 101, 2-Chloro-5-(3-isopropyl-1H-indazole-6-carbonyl)-benzenesulfonamide], the pIC50 at Collagenase-3 (MMP-13) was 5.44; on Gelatinase (MMP-2), 5.20.

In the case of `NS(=O)(=O)c1cc(C(=O)c2ccc3c(c2)[nH]c2ccccc23)ccc1Cl` [Example 102, 5-(9H-Carbazole-2-carbonyl)-2-chloro-benzenesulfonamide], the pIC50 is 5.57 at Collagenase-3 (MMP-13) and 6.00 on Gelatinase (MMP-2).

As for `CCOC(=O)N1CCc2[nH]c3cc(C(=O)c4ccc(Cl)c(S(N)(=O)=O)c4)ccc3c2C1` [Example 103, 7-(4-Chloro-3-sulfamoyl-benzoyl)-1,3,4,5-tetrahydro-pyrido[4,3-b]indole-2-carboxylic acid ethyl ester], the pIC50 on Collagenase-3 (MMP-13) was 6.44; on Gelatinase (MMP-2), 6.07.

For `CCOC(=O)N1CCc2[nH]c3ccc(C(=O)c4ccc(Cl)c(S(N)(=O)=O)c4)cc3c2C1` [Example 104, 8-(4-Chloro-3-sulfamoyl-benzoyl)-1,3,4,5-tetrahydro-pyrido[4,3-b]indole-2-carboxylic acid ethyl ester], the pIC50 on Collagenase-3 (MMP-13) was 5.72; on Gelatinase (MMP-2) it was 4.67.

In the case of `NS(=O)(=O)c1cc(C(=O)c2ccc3c4c([nH]c3c2)C(=O)NCC4)ccc1Cl` [Example 105, 2-Chloro-5-(1-oxo-2,3,4,9-tetrahydro-1H-beta-carboline-7-carbonyl)-benzenesulfonamide], the pIC50 was 5.05 on Collagenase-3 (MMP-13) and 5.10 on Gelatinase (MMP-2).

`CC(C)(C)C(=O)N1CCc2c([nH]c3ccc(C(=O)c4ccc(Cl)c(S(N)(=O)=O)c4)cc23)C1` [Example 106, 2-Chloro-5-[2-(2,2-dimethyl-propionyl)-2,3,4,9-tetrahydro-1H-beta-carbolise-6-carbonyl]-benzenesulfonamide]: the values for the pIC50 at Collagenase-3 (MMP-13) and at Gelatinase (MMP-2) were 6.02 and less than 5.57, respectively.

Take `CN1C(=O)CCC2=C1Cc1cc(C(=O)c3ccc(Cl)c(S(N)(=O)=O)c3)ccc12` [Example 107, 2-Chloro-5-(1-methyl-2-oxo-2,3,4,9-tetrahydro-1H-indeno[2,1-b]pyridine-7-carbonyl)-benzenesulfonamide]: the pIC50 on Collagenase-3 (MMP-13) is 7.16; on Gelatinase (MMP-2), 7.57.

For the compound `CCN1C(=O)CCC2=C1Cc1cc(C(=O)c3ccc(Cl)c(S(N)(=O)=O)c3)ccc12` [Example 108, 2-Chloro-5-(1-ethyl-2-oxo-2,3,4,9-tetrahydro-1H-indeno[2,1-b]pyridine-7-carbonyl)-benzenesulfonamide], the pIC50 on Collagenase-3 (MMP-13) is 5.39; on Gelatinase (MMP-2), 5.54.

As for `Cc1ccc(C)n1-c1ccc(C(=O)c2ccc(Cl)c(S(N)(=O)=O)c2)cc1F` [Example 109, 2-Chloro-5-[4-(2,5-dimethyl-pyrrol-1-yl)-3-fluoro-benzoyl]-benzenesulfonamide], the figures for the pIC50 on Collagenase-3 (MMP-13) and at Gelatinase (MMP-2) were 4.70 and 4.66, respectively.

For the compound `NS(=O)(=O)c1cc(C(=O)c2c[nH]c3ccccc23)ccc1Cl` [Example 113, 2-Chloro-5-(1H-indole-3-carbonyl)-benzenesulfonamide], the pIC50 at Collagenase-3 (MMP-13) was 5.51; at Gelatinase (MMP-2) it was 5.05.

Consider `Cn1ccc2cc(C(=O)c3ccc(Cl)c(S(N)(=O)=O)c3)ccc21` [Example 114, 2-Chloro-5-(1-methyl-1H-indole-5-carbonyl)-benzenesulfonamide], for which the values for the pIC50 on Collagenase-3 (MMP-13) and on Gelatinase (MMP-2) were 5.50 and 5.48, respectively.

Take `NS(=O)(=O)c1cc(C(=O)c2ccc3cc[nH]c3c2)ccc1Cl` [Example 115, 2-Chloro-5-(1H-indole-6-carbonyl)-benzenesulfonamide]: the pIC50 at Collagenase-3 (MMP-13) is 6.75; on Gelatinase (MMP-2), 6.66.
